Experimental data: US5753516A, “Screening method for ligands of the EBI-1 receptor” (priority 1995, dated 1998)
Values joined by “and” are separate entries in the source; they are usually repeats but may differ in a detail not shown here. Identical values can stand only once. “Also recorded” adds a separate entry of the source. Like-named read-outs stand apart in the source and are kept apart here.

Legend:
[1] = system: NALM 6 cells; assay: [Ca^2+ ]i response of NALM 6 / leukemia cells (Indo-1, flow cytometry); assay type: cell-based, human
Method: FIG. 15, Panels A-C. […] Cells were labeled with Indo-1 as previously described (Rabinovitch et al., 1986), washed twice in serum-free medium and held at 4° C. until flow cytometric analysis. The violet/blue fluorescence ratio was measured using previously described methods (Rabinovitch et al., 1986). Nonstimulated cells (measured in medium, alone) were used to establish a relative violet/blue ratio arbitrarily set at 1.0 as previously described (Rabinovitch). Calibration of [Ca^2+ ]i was carried out as previously described by Rabinovitch et al (1986) using the formula: [formula]
Rmax values were determined by measuring the maximum shift in indo violet/blue fluorescence for cells treated with 4 μM ionomycin. Rmin was measured as the minimum ratio for the violet blue fluorescence of ionomycin treated cells following the addition of 8 mM EGTA. […] The Kd (effective dissociation constant) was set at 250 nM.

[2] = system: NALM 6 cells; assay: cAMP accumulation in NALM 6 cells; assay type: cell-based, human; conditions: forskolin-activated NALM 6
Method: FIG. 16. […] NALM 6 cells (2×10^6 /ml) were stimulated with forskolin or forskolin+MET-ENK at the concentrations indicated and in the presence of 1 mM isobutyl-1-methylxanthine. Cyclic AMP was assayed after 15 minutes at 37° C. Data are expressed as fmoles of cAMP/minute. Samples were processed as previously described Cobb, Heagy, Dunner et al., 1980; cAMP was measured using a commercial RIA kit.

[3] = system: human T cells; conditions: Heagy et al., 1990; cited from earlier work
[4] = system: lymphocytes and macrophages; conditions: cited from earlier work
[5] = system: COS (Vector Control); assay: cAMP accumulation in COS cells (vector control); assay type: cell-based, monkey
[6] = system: T cells; conditions: literature; cited from earlier work
[7] = system: LAZ 221 cells; assay: Flow cytometry of surface molecule expression on LAZ 221 cells; assay type: cell-based, human
Method: FIG. 4, Panels A-C. […] Data are presented as mean fluorescence intensities measured for 10,000 cells labeled with anti-CD9 or CD10 mAb. In Panel A, the NALM 6 Cells were incubated with MET-ENK (10^-7 M) for the times indicated. In Panel B, the LAZ 221 cells were incubated with MET-ENK at the doses indicated for 5 minutes at 37° C. […] The anti-CD9 and anti-CD10 mAb used for these experiments were of the IgG2a isotype.
Immunofluorescence Staining and Flow Cytometric Analysis of Cell Surface Molecules: Cells were resuspended at 1×10^6 /ml in PBS and then incubated for periods of 5 to 120 minutes at 37° C. with MET-ENK at doses of 0 to 10^-5 M. Incubations were terminated by transferring samples to an ice bath and then pelleting the cells by centrifugation at 1800 rpm for 5 minutes at 4° C.
Immunofluorescence staining was carried out in 4-ml tubes maintained in an ice water bath. […] Cells were subsequently fixed within a 2% solution of formalin and maintained in the dark at 10° C. until analyzed.
Flow cytometric analysis was performed using a FACS SCAN Flow Cytometer (Becton Dickinson, Mountain View, Calif.) equipped with a HP9000 Series computer and the Lysys System software analysis package. Data were collected as histograms depicting the fluorescence intensity for 5,000 to 10,000 cells per sample.
The non-binding IgG1 MOPC myeloma protein, anti-macrophage/monocyte specific CD14 (MO2; IgG2) and anti-T cell specific CD3 (OKT3; IgG2a) mAb were employed as nonreactive controls for measuring the autofluorescence of B cells.

[8] = system: human T cells; assay: Migration of human peripheral blood T cells; assay type: cell-based
[9] = system: murine splenocytes; conditions: cited from earlier work
[10] = system: NALM 6 cells; assay: Migration (chemotaxis) of NALM 6 pre-B ALL cells; assay type: cell-based, human; conditions: for Number of cells at 40 μm from origin: cells preincubated with mAb (MET-ENK line: buffer, alone); for cell counts, migration to MET-ENK without naloxone: spontaneous 1647
[11] = target: T1, EBI1 (Homo sapiens, UniProt P32248)
T1 sequence (P32248 25-378): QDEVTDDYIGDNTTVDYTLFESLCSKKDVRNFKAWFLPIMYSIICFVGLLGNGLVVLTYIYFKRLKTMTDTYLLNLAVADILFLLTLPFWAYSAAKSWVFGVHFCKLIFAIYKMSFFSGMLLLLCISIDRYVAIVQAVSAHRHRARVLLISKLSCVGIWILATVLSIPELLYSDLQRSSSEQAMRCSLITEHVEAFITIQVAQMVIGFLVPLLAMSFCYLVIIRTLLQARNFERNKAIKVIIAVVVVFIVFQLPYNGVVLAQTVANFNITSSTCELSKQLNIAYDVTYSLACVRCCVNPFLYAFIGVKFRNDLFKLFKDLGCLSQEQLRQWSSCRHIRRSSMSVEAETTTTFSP

[12] = system: NALM 6 cells; assay: MET-ENK-FITC binding to NALM 6 cells (flow cytometry, Scatchard); set-up: species or system human; conditions: NALM 6
[13] = system: lymphocytes; conditions: infusion into afferent lymphatics, sheep; cited from earlier work
[14] = system: NALM 6 cells; conditions: cited from earlier work
[15] = system: NK cells and lymphocytes; conditions: literature; cited from earlier work
[16] = system: Jurkat cells; assay: MET-ENK-FITC binding to Jurkat cells (flow cytometry, Scatchard); set-up: species or system human
[17] = LAZ 221, 10^-7 M MET-ENK, untreated 1.0
[18] = LAZ 221, 10^-7 M MET-ENK, untreated 1.7
[19] = listed as methionine enkephalin
[20] = read-out: Kd, high affinity site
[21] = read-out: Kd, low affinity site

## CSCC[C@H](NC(=O)[C@H](Cc1ccccc1)NC(=O)CNC(=O)CNC(=O)[C@@H](N)Cc1ccc(O)cc1)C(=O)O [MET-ENK, Tyr-Gly-Gly-Phe-Met]
[1]
  [Ca^2+ ]i response: rapid rise in the concentration of free intracellular Ca2+; also recorded: rapid rise in [Ca^2+ ]i
[1]; listed as methionine-enkephalin
  [Ca^2+ ]i response: concentration dependent rise in [Ca^2+ ]i
[2]
  cAMP production in NALM 6 cells: enhancement in the production of cAMP
[2]; listed as Methionine-enkephalin
  cAMP production in NALM 6 cells: potentiates cAMP accumulation
[3]
  human T cell migration: potent stimulants for the migration of isolated human T cells
[4]; animals
  lymphocyte trafficking in vivo: enhance lymphocyte trafficking
[4]; injection into cerebroventricles of rodents
  lymphocyte and macrophage migration into ventricles: elicited lymphocyte and macrophage migration into the ventricles
[5]; COS (Vector Control), MET-ENK 0.01 nM, naloxone 10 μM, forskolin 0.1 μM, controls 40.2 and 38.8
  cAMP: 31.6 fmoles/cell × 10^3
[5]; COS transfected with vector alone
  effect on cAMP, mock transfected controls: no effect on the cAMP produced in mock transfected controls
[6]
  T cell aggregation, rosetting, morphology, adhesion molecules: enhance T cell aggregation
[7]; LAZ 221
  surface expression of CD9: transient increase in their surface expression of CD9 but not CD10 molecules
[7]; LAZ 221, 10^-7 M MET-ENK, untreated 0.9
  CD2 (LFA-2) fluorescence ratio: 1.0
[7]; [17]
  CD4 fluorescence ratio: 1.0
  CD11a (LF1α) fluorescence ratio: 1.1
  CD18 (Integrin β chain) fluorescence ratio: 1.1
  CD20 fluorescence ratio: 1.1
[7]; LAZ 221, 10^-7 M MET-ENK, untreated 1.4
  CD11b (Mac 1) fluorescence ratio: 1.5
[7]; LAZ 221, 10^-7 M MET-ENK, untreated 1.5
  CD54 (ICAM-1) fluorescence ratio: 1.5
[7]; [18]
  CD19 fluorescence ratio: 1.9
  CD29 (VLA-β chain) fluorescence ratio: 1.9
  CD58 (LFA-3) fluorescence ratio: 1.9
[7]; LAZ 221, 10^-7 M MET-ENK, untreated 5.8
  VLA-β; DE9N fluorescence ratio: 5.6
[7]; LAZ 221, 5 minutes at 37° C.
  lowest dose increasing CD9 expression: 10^-11 M
[8]
  human lymphocyte / T cell migration: stimulate human lymphocyte migration
[9]
  humoral / antibody response: diminished
[10]; MET-ENK 0.01 nM
  Number of cells at 40 μm from origin: 238
[10]; MET-ENK 1 nM
  cell counts, migration to MET-ENK without naloxone: 2925 cell counts
[10]; MET-ENK 1.0 nM
  Number of cells at 40 μm from origin: 407
[10]; MET-ENK 100 nM
  cell counts, migration to MET-ENK without naloxone: 3492 cell counts
  Number of cells at 40 μm from origin: 637
[10]; NALM 6, peptide 100 nM, spontaneous locomotion 2190
  cell migration (cell counts): 6952 cell counts
[10]; NALM 6 and LAZ 221 cells
  effect on migration of pre-B ALL cells: potent stimulus for the migration of NALM 6 and LAZ 221 (pre-B ALL) but not LAZ 388 (EBV-transformed) cells
[10]; NALM 6 and LAZ 221 pre-B ALL cells
  concentration at which effect on migration is detected: ≤ 10 pM
[11]
  cAMP: 109.6 fmoles/cell × 10^3
[12]
  Bmax, low affinity sites: 4.48×10^4 sites/cell
  number of high affinity sites: 25.9 pM
  number of low affinity sites: 149 pM
[12]; [19]
  Bmax, low affinity sites: 4.48×10^4 sites/cell
[12]; [20]
  Kd: 1.01 nM
[12]; [21]
  Kd: 318 nM
[13]
  lymphocyte exit from popliteal nodes: stimulated small and blast lymphocytes to exit the node and enter the efferent lymph
[14]
  lag phase before [Ca^2+ ]i rise: ~ 30 sec
[15]
  NK cell activity, lymphocyte proliferation, antibody production: diminish NK cell activity, decrease lymphocyte proliferation, and inhibit antibody production
[16]
  Bmax, low affinity sites: 3.3×10^4 sites/cell and 3.0×10^4 sites/cell
  number of high affinity sites: 3.3 pM
  number of low affinity sites: 101 pM
[16]; [19]
  Bmax, low affinity sites: 3.0×10^4 sites/cell
[16]; [20]
  Kd: 1.36 nM
[16]; [21]
  Kd: 318 nM
